In US8906911B2, “Chemokine receptor antagonists” (AbbVie Inc., priority 2012, dated 2014):
Like-named read-outs stand apart in the source and are kept apart here.

Tests used:
human CCR2B = human CCR2B (Homo sapiens (Human), UniProt P41597); assay: Inhibition of native agonist (human MCP-1)-induced intracellular calcium release, calcium flux assay in CHO cells expressing human CCR2B and Gα16; type: cell-based; conditions: for IC50: read-out: hCCR2B IC50
Text: (§1) CHO cells expressing human CCR2B were generated as follows. cDNA for human CCR2B (cloned from human blood) was cloned into plasmid pcDNA3.1 (from Invitrogen). The resulting plasmids were separately transfected into CHO cells expressing human Gα16 (from Molecular Devices). […] CHO cells expressing rat CCR2 were generated as follows. cDNA for rat CCR2 (cloned from rat macrophage) was cloned into plasmid pEF-flag (from Chinese Academy of Science). The resulting plasmids were transfected into CHO cells expressing human Gα16 (from […]).
(§2) Inhibition of Native Agonist-Induced Intracellular Calcium Release in Cells Expressing hCCR2B or rCCR2
(§3) Calcium flux assays were performed in CHO cells expressing human CCR2B and Gα16 coupling protein, or rat CCR2 and Gα16 coupling protein. All compounds were dissolved in DMSO and assays run at a final DMSO concentration of 0.25% (v/v). Human MCP-1 was purchased from PeproTech and used at a final assay concentration of 2 nM, while rat MCP-1 was purchased from R&D and used at a final assay concentration of 4 nM. Assays with cells expressing human CCR2B were performed with human MCP-1, while assays with cells expressing rat CCR2 were performed with rat MCP-1.
(§4) Briefly, cells were cultured overnight in a microtiter plate at 8000 per well. The next day, the resultant adherent cells were incubated in assay buffer (20 mM HEPES, pH 7.4, 0.1% bovine serum albumin, and 2.5 mM probenocid in Hank's Buffered Saline Solution) containing Calcium 4 dye (Molecular Probes) at 37° C. for 60 minutes. Calcium flux assays were performed on a FLIPR^Tetra instrument (Molecular Devices) by adding compound to the cells followed by addition of native agonist and measuring the change in fluorescence as a function of time. Maximal and minimal values for fluorescence were determined using native agonist (2 nM MCP-1) for human or rat CCR2, or buffer addition, respectively. Fluorescence values were used to calculate the percent inhibition at a given compound concentration and the data fit to a sigmoidal curve in a semi-log plot to determine IC50 values. The Kb value is calculated as Kb=IC50/(1+[agonist]/EC50), where [agonist] is the concentration of agonist used and EC50 is the agonist potency determined in the previous experiments. Mean Kb values and IC50 of the compounds assayed are reported in Table 2 and Table 3 respectively.

rat CCR2 = rat CCR2 (Rattus norvegicus (Rat), UniProt O55193); assay: Inhibition of native agonist (rat MCP-1)-induced intracellular calcium release, calcium flux assay in CHO cells expressing rat CCR2 and Gα16; type: cell-based; conditions: read-out: rCCR2 Kb
Text: as §1, §2, §3, §4

Chain of human CCR2B (P41597 other isoform, or with tags, fused parts or gaps): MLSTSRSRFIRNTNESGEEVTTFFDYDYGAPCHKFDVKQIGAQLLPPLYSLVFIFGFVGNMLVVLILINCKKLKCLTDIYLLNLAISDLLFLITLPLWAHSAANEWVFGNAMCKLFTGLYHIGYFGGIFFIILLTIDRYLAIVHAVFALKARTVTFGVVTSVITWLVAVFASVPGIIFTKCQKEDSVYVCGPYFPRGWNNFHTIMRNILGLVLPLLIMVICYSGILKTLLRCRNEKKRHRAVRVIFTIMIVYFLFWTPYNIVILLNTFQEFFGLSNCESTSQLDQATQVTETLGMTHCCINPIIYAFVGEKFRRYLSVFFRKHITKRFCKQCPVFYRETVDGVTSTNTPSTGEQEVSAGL
Chain of rat CCR2 (O55193 whole entry): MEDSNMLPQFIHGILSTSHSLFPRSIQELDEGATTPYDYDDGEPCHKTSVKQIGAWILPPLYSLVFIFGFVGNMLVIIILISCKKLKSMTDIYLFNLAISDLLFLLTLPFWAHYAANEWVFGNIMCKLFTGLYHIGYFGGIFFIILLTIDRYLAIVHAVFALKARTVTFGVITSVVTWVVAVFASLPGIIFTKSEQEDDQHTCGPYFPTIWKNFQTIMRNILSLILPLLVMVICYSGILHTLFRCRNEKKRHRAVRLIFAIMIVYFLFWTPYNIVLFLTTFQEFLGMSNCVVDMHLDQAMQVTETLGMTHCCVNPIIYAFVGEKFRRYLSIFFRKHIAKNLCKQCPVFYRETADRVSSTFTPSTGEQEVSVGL

Compound | IC50 (human CCR2B) [nM] | Kb (human CCR2B; read-out: hCCR2B Kb) [nM] | Kb (rat CCR2) [nM] | IC50 (human CCR2B; calcium flux, human MCP-1 2 nM) [nM] | Kb (human CCR2B) [nM]
CO[C@@H]1COCC[C@@H]1N[C@@H]1C[C@H]2CCC[C@@]2(C(=O)N2C[C@@H]3C[C@H]2CN3c2ncccc2C(F)(F)F)C1 [Example 33, 1,5-anhydro-2,3-dideoxy-4-O-methyl-3-{[(2R,3aR,6aR)-3a-({(1S,4S)-5-[3-(trifluoromethyl)pyridin-2-yl]-2,5-diazabicyclo[2.2.1]hept-2-yl}carbonyl)octahydropentalen-2-yl]amino}-D-erythro-pentitol] | 25000 | > 6140 | > 1330 | – | –
CO[C@@H]1COCC[C@@H]1N[C@@H]1C[C@H]2CCC[C@@]2(C(=O)N2C[C@@H]3C[C@H]2CN3c2ccc(C(F)(F)F)cn2)C1 [Example 34, 1,5-anhydro-2,3-dideoxy-4-O-methyl-3-{[(2R,3aR,6aR)-3a-({(1S,4S)-5-[5-(trifluoromethyl)pyridin-2-yl]-2,5-diazabicyclo[2.2.1]hept-2-yl}carbonyl)octahydropentalen-2-yl]amino}-D-erythro-pentitol] | 2780 | 682 | 342 | – | –
CO[C@@H]1COCC[C@@H]1N[C@@H]1C[C@H]2CCC[C@@]2(C(=O)N2C[C@@H]3C[C@H]2CN3c2ccnc(Cl)c2)C1 [Example 35, 1,5-anhydro-3-{[(2R,3aR,6aR)-3a-{[(1S,4S)-5-(2-chloropyridin-4-yl)-2,5-diazabicyclo[2.2.1]hept-2-yl]carbonyl}octahydropentalen-2-yl]amino}-2,3-dideoxy-4-O-methyl-D-erythro-pentitol] | – | 682 | 240 | 2780 | –
CO[C@@H]1COCC[C@@H]1N[C@@H]1C[C@H]2CCC[C@@]2(C(=O)N2C[C@@H]3C[C@H]2CN3c2ccc(C#N)cc2C(F)(F)F)C1 [Example 37, 1,5-anhydro-3-{[(2R,3aR,6aR)-3a-({(1S,4S)-5-[4-cyano-2-(trifluoromethyl)phenyl]-2,5-diazabicyclo[2.2.1]hept-2-yl}carbonyl)octahydropentalen-2-yl]amino}-2,3-dideoxy-4-O-methyl-D-erythro-pentitol] | – | 393 | 248 | 1600 | –
CO[C@@H]1COCC[C@H]1N[C@@H]1C[C@H]2CCC[C@@]2(C(=O)N2[C@@H]3CC[C@H]2CN(c2cc(C(F)(F)F)ccn2)C3)C1 [Example 41, 1,5-anhydro-2,3-dideoxy-4-O-methyl-3-{[(2R,3aR,6aR)-3a-({(1R,5S)-3-[4-(trifluoromethyl)pyridin-2-yl]-3,8-diazabicyclo[3.2.1]oct-8-yl}carbonyl)octahydropentalen-2-yl]amino}-D-threo-pentitol] | – | > 6140 | > 4000 | 25000 | –
CO[C@@H]1COCC[C@@H]1N[C@@H]1C[C@H]2CCC[C@@]2(C(=O)N2C[C@@H]3C[C@H]2CN3c2cc(C#N)cc(C(F)(F)F)c2)C1 [Example 42, 1,5-anhydro-3-{[(2R,3aR,6aR)-3a-({(1S,4S)-5-[3-cyano-5-(trifluoromethyl)phenyl]-2,5-diazabicyclo[2.2.1]hept-2-yl}carbonyl)octahydropentalen-2-yl]amino}-2,3-dideoxy-4-O-methyl-D-erythro-pentitol] | 812 | – | 26 | – | 199
CO[C@@H]1COCC[C@@H]1N[C@@H]1C[C@H]2CCC[C@@]2(C(=O)N2C[C@@H]3C[C@H]2CN3c2cc(C(F)(F)F)cc(C(F)(F)F)c2)C1 [Example 43, 1,5-anhydro-3-{[(2R,3aR,6aR)-3a-({(1S,4S)-5-[3,5-bis(trifluoromethyl)phenyl]-2,5-diazabicyclo[2.2.1]hept-2-yl}carbonyl)octahydropentalen-2-yl]amino}-2,3-dideoxy-4-O-methyl-D-erythro-pentitol] | – | 373 | 53 | – | –
CO[C@@H]1COCC[C@@H]1N[C@@H]1C[C@H]2CCC[C@@]2(C(=O)N2C[C@@H]3C[C@H]2CN3c2cccc(Cl)c2C#N)C1 [Example 44, 1,5-anhydro-3-{[(2R,3aR,6aR)-3a-{[(1S,4S)-5-(3-chloro-2-cyanophenyl)-2,5-diazabicyclo[2.2.1]hept-2-yl]carbonyl}octahydropentalen-2-yl]amino}-2,3-dideoxy-4-O-methyl-D-erythro-pentitol] | – | 394 | 486 | 1600 | –
CO[C@@H]1COCC[C@@H]1N[C@@H]1C[C@H]2CCC[C@@]2(C(=O)N2C[C@@H]3C[C@H]2CN3c2cccc(C(F)(F)F)c2C#N)C1 [Example 45, 1,5-anhydro-3-{[(2R,3aR,6aR)-3a-({(1S,4S)-5-[2-cyano-3-(trifluoromethyl)phenyl]-2,5-diazabicyclo[2.2.1]hept-2-yl}carbonyl)octahydropentalen-2-yl]amino}-2,3-dideoxy-4-O-methyl-D-erythro-pentitol] | – | 542 | 532 | 2200 | –
CO[C@@H]1COCC[C@@H]1N[C@@H]1C[C@H]2CCC[C@@]2(C(=O)N2C[C@@H]3C[C@H]2CN3c2ccc(Cl)c(C(F)(F)F)c2)C1 [Example 46, 1,5-anhydro-3-{[(2R,3aR,6aR)-3a-({(1S,4S)-5-[4-chloro-3-(trifluoromethyl)phenyl]-2,5-diazabicyclo[2.2.1]hept-2-yl}carbonyl)octahydropentalen-2-yl]amino}-2,3-dideoxy-4-O-methyl-D-erythro-pentitol] | – | 4 | 3 | – | –
CO[C@@H]1COCC[C@@H]1N(C)[C@@H]1C[C@H]2CCC[C@@]2(C(=O)N2C[C@@H]3C[C@H]2CN3c2cccc(C(F)(F)F)c2C#N)C1 [Example 54, 1,5-anhydro-3-{[(2R,3aR,6aR)-3a-({(1S,4S)-5-[2-cyano-3-(trifluoromethyl)phenyl]-2,5-diazabicyclo[2.2.1]hept-2-yl}carbonyl)octahydropentalen-2-yl](methyl)amino}-2,3-dideoxy-4-O-methyl-D-erythro-pentitol] | 2780 | 682 | 2310 | – | –
CO[C@@H]1COCC[C@@H]1N(C)[C@@H]1C[C@H]2CCC[C@@]2(C(=O)N2C[C@@H]3C[C@H]2CN3c2cc(C(F)(F)F)cc(C(F)(F)F)c2)C1 [Example 55, 1,5-anhydro-3-{[(2R,3aR,6aR)-3a-({(1S,4S)-5-[3,5-bis(trifluoromethyl)phenyl]-2,5-diazabicyclo[2.2.1]hept-2-yl}carbonyl)octahydropentalen-2-yl](methyl)amino}-2,3-dideoxy-4-O-methyl-D-erythro-pentitol] | – | 346 | 175 | 1410 | –
CO[C@@H]1COCC[C@@H]1N(C)[C@@H]1C[C@H]2CCC[C@@]2(C(=O)N2C[C@@H]3C[C@H]2CN3c2cc(C#N)cc(C(F)(F)F)c2)C1 [Example 57, 1,5-anhydro-3-{[(2R,3aR,6aR)-3a-({(1S,4S)-5-[3-cyano-5-(trifluoromethyl)phenyl]-2,5-diazabicyclo[2.2.1]hept-2-yl}carbonyl)octahydropentalen-2-yl](methyl)amino}-2,3-dideoxy-4-O-methyl-D-erythro-pentitol] | – | 128 | 55 | 521 | –
CO[C@@H]1COCC[C@@H]1N(C)[C@@H]1C[C@H]2CCC[C@@]2(C(=O)N2C[C@@H]3C[C@H]2CN3c2cccc(Cl)c2C#N)C1 [Example 58, 1,5-anhydro-3-{[(2R,3aR,6aR)-3a-{[(1S,4S)-5-(3-chloro-2-cyanophenyl)-2,5-diazabicyclo[2.2.1]hept-2-yl]carbonyl}octahydropentalen-2-yl](methyl)amino}-2,3-dideoxy-4-O-methyl-D-erythro-pentitol] | – | 684 | 515 | 2780 | –
O=C(N1C[C@@H]2C[C@H]1CN2c1cc(C(F)(F)F)ccn1)[C@@]12CCC[C@@H]1C[C@@H](N1CCOCC1)C2 [Example 59, [(2R,3aR,6aR)-2-(morpholin-4-yl)hexahydropentalen-3a(1H)-yl]{(1S,4S)-5-[4-(trifluoromethyl)pyridin-2-yl]-2,5-diazabicyclo[2.2.1]hept-2-yl}methanone] | 830 | 204 | 533 | – | –
C[C@H]1COCC[C@H]1N[C@@H]1C[C@H]2CCC[C@@]2(C(=O)N2C[C@@H]3C[C@H]2CN3c2cc(C(F)(F)F)ccn2)C1 [Example 62, [(2R,3aR,6aR)-2-{[(3R,4R)-3-methyltetrahydro-2H-pyran-4-yl]amino}hexahydropentalen-3a(1H)-yl]{(1S,4S)-5-[4-(trifluoromethyl)pyridin-2-yl]-2,5-diazabicyclo[2.2.1]hept-2-yl}methanone] | – | 109 | 55 | 445 | –
